Active and inactive are the calls of the source. The rule behind the calls is not given here.
Test system: CCRIS mutagenicity, Ames/micronucleus/aberration tests
Test: CCRIS mutagenicity studies
[1] = Test System: AMES SALMONELLA TYPHIMURIUM, Strain/Indicator: TA97, Metabolic Activation: NONE, Method: STANDARD PLATE
[2] = Test System: AMES SALMONELLA TYPHIMURIUM, Strain/Indicator: TA97, Metabolic Activation: RAT, LIVER, S-9, AROCLOR 1254, Method: STANDARD PLATE
[3] = Test System: AMES SALMONELLA TYPHIMURIUM, Strain/Indicator: TA98, Metabolic Activation: NONE, Method: STANDARD PLATE
[4] = Test System: AMES SALMONELLA TYPHIMURIUM, Strain/Indicator: TA98, Metabolic Activation: RAT, LIVER, S-9, AROCLOR 1254, Method: STANDARD PLATE
[5] = Test System: AMES SALMONELLA TYPHIMURIUM, Strain/Indicator: TA100, Metabolic Activation: NONE, Method: STANDARD PLATE
[6] = Test System: AMES SALMONELLA TYPHIMURIUM, Strain/Indicator: TA100, Metabolic Activation: RAT, LIVER, S-9, AROCLOR 1254, Method: STANDARD PLATE
[7] = Test System: AMES SALMONELLA TYPHIMURIUM, Strain/Indicator: TA102, Metabolic Activation: NONE, Method: STANDARD PLATE
[8] = Test System: AMES SALMONELLA TYPHIMURIUM, Strain/Indicator: TA102, Metabolic Activation: RAT, LIVER, S-9, AROCLOR 1254, Method: STANDARD PLATE

Measured: mutagenic call

CCOC(=O)Nc1cccc2c1CN(C)CC2c1ccc(Cl)cc1 (stereo unspecified)
inactive: Test System: AMES SALMONELLA TYPHIMURIUM, Strain/Indicator: TA98, Metabolic Activation: NONE inactive; negative | Test System: AMES SALMONELLA TYPHIMURIUM, Strain/Indicator: TA98, Metabolic Activation: S-9 inactive; negative | Test System: AMES SALMONELLA TYPHIMURIUM, Strain/Indicator: TA100, Metabolic Activation: NONE inactive; negative | Test System: AMES SALMONELLA TYPHIMURIUM, Strain/Indicator: TA100, Metabolic Activation: S-9 inactive; negative | Test System: AMES SALMONELLA TYPHIMURIUM, Strain/Indicator: TA1535, Metabolic Activation: NONE inactive; negative | Test System: AMES SALMONELLA TYPHIMURIUM, Strain/Indicator: TA1535, Metabolic Activation: S-9 inactive; negative | Test System: AMES SALMONELLA TYPHIMURIUM, Strain/Indicator: TA1537, Metabolic Activation: NONE inactive; negative | Test System: AMES SALMONELLA TYPHIMURIUM, Strain/Indicator: TA1537, Metabolic Activation: S-9 inactive; negative | Test System: AMES SALMONELLA TYPHIMURIUM, Strain/Indicator: TA1538, Metabolic Activation: NONE inactive; negative | Test System: AMES SALMONELLA TYPHIMURIUM, Strain/Indicator: TA1538, Metabolic Activation: S-9 inactive; negative

COc1ccc2c(c1OC)C(=O)O[C@@H]2[C@H]1c2c(cc3c(c2OC)OCO3)CCN1C
active: End Point: CHROMOSOMAL ABERRATIONS, Test System: HUMAN LYMPHOCYTES, Metabolic Activation: NONE, Method: FISH active; positive (ploidy changes) | End Point: In vivo micronucleus, Test System: Micronucleated, binucleated and multinucleated hepatocytes, Species: Mouse, Strain/Sex: ddY/Male, Route: Intravenous active; positive for micronucleated, binucleated and multinucleated cells when agent adm | End Point: MICRONUCLEUS, Test System: HUMAN LYMPHOCYTES, Metabolic Activation: NONE active; positive (aneuploidy and polyploidy)

CN1CCc2cc3c(c4c2[C@H]1[C@H](O)c1ccccc1-4)OCO3
active: Test System: AMES SALMONELLA TYPHIMURIUM, Strain/Indicator: TA98, Metabolic Activation: RAT, LIVER, S-9, PHENOBARBITAL AND BETA-NAPHTHOFLAVONE, Method: PREINCUBATION active; positive | Test System: AMES SALMONELLA TYPHIMURIUM, Strain/Indicator: TA100, Metabolic Activation: RAT, LIVER, S-9, PHENOBARBITAL AND BETA-NAPHTHOFLAVONE, Method: PREINCUBATION active; positive

CCCCN(CCC)N=O
active: Test System: AMES SALMONELLA TYPHIMURIUM, Strain/Indicator: TA100, Metabolic Activation: RAT, LIVER, S-9, KC500 OR PHENOBARBITAL, Method: LIQUID SUSPENSION active; positive | Test System: MOUSE LYMPHOMA, Strain/Indicator: L5178Y (TK+/TK-), Metabolic Activation: RAT, LIVER, S-9, AROCLOR 1254, Method: SUSPENSION/PLATE active; positive

C[N+]1(C)CCOCC1
inactive: [1] inactive; negative | [2] inactive; negative | [3] inactive; negative | [4] inactive; negative | [5] inactive; negative | [6] inactive; negative | [7] inactive; negative | [8] inactive; negative | Test System: AMES SALMONELLA TYPHIMURIUM, Strain/Indicator: TA104, Metabolic Activation: NONE, Method: STANDARD PLATE inactive; negative | Test System: AMES SALMONELLA TYPHIMURIUM, Strain/Indicator: TA104, Metabolic Activation: RAT, LIVER, S-9, AROCLOR 1254, Method: STANDARD PLATE inactive; negative | Test System: AMES SALMONELLA TYPHIMURIUM, Strain/Indicator: TA1535, Metabolic Activation: NONE, Method: STANDARD PLATE inactive; negative | Test System: AMES SALMONELLA TYPHIMURIUM, Strain/Indicator: TA1535, Metabolic Activation: RAT, LIVER, S-9, AROCLOR 1254, Method: STANDARD PLATE inactive; negative | Test System: AMES SALMONELLA TYPHIMURIUM, Strain/Indicator: TA1537, Metabolic Activation: NONE, Method: STANDARD PLATE inactive; negative | Test System: AMES SALMONELLA TYPHIMURIUM, Strain/Indicator: TA1537, Metabolic Activation: RAT, LIVER, S-9, AROCLOR 1254, Method: STANDARD PLATE inactive; negative | Test System: AMES SALMONELLA TYPHIMURIUM, Strain/Indicator: TA1538, Metabolic Activation: NONE, Method: STANDARD PLATE inactive; negative | Test System: AMES SALMONELLA TYPHIMURIUM, Strain/Indicator: TA1538, Metabolic Activation: RAT, LIVER, S-9, AROCLOR 1254, Method: STANDARD PLATE inactive; negative

CC(=O)Oc1ccc(CCl)cc1
active: [5] active; positive

COc1ccc(CN(CCN(C)C)c2ccccn2)cc1
inactive: [1] inactive; negative | [2] inactive; negative | Test System: AMES SALMONELLA TYPHIMURIUM, Strain/Indicator: TA98, Metabolic Activation: HAMSTER, LIVER, S-9, AROCLOR 1254 (10%), Method: PREINCUBATION inactive; negative | Test System: AMES SALMONELLA TYPHIMURIUM, Strain/Indicator: TA98, Metabolic Activation: NONE, Method: PREINCUBATION inactive; negative | [3] inactive; negative | Test System: AMES SALMONELLA TYPHIMURIUM, Strain/Indicator: TA98, Metabolic Activation: RAT, LIVER, S-9, AROCLOR 1254 (10%), Method: PREINCUBATION inactive; negative | [4] inactive; negative | Test System: AMES SALMONELLA TYPHIMURIUM, Strain/Indicator: TA100, Metabolic Activation: HAMSTER, LIVER, S-9, AROCLOR 1254 (10%), Method: PREINCUBATION inactive; negative | Test System: AMES SALMONELLA TYPHIMURIUM, Strain/Indicator: TA100, Metabolic Activation: NONE, Method: PREINCUBATION inactive; negative | [5] inactive; negative | Test System: AMES SALMONELLA TYPHIMURIUM, Strain/Indicator: TA100, Metabolic Activation: RAT, LIVER, S-9, AROCLOR 1254 (10%), Method: PREINCUBATION inactive; negative | [6] inactive; negative | [7] inactive; negative | [8] inactive; negative | Test System: AMES SALMONELLA TYPHIMURIUM, Strain/Indicator: TA1535, Metabolic Activation: HAMSTER, LIVER, S-9, AROCLOR 1254 (10%), Method: PREINCUBATION inactive; negative | Test System: AMES SALMONELLA TYPHIMURIUM, Strain/Indicator: TA1535, Metabolic Activation: NONE, Method: PREINCUBATION inactive; negative | Test System: AMES SALMONELLA TYPHIMURIUM, Strain/Indicator: TA1535, Metabolic Activation: RAT, LIVER, S-9, AROCLOR 1254 (10%), Method: PREINCUBATION inactive; negative | Test System: AMES SALMONELLA TYPHIMURIUM, Strain/Indicator: TA1537, Metabolic Activation: HAMSTER, LIVER, S-9, AROCLOR 1254 (10%), Method: PREINCUBATION inactive; negative | Test System: AMES SALMONELLA TYPHIMURIUM, Strain/Indicator: TA1537, Metabolic Activation: NONE, Method: PREINCUBATION inactive; negative | Test System: AMES SALMONELLA TYPHIMURIUM, Strain/Indicator: TA1537, Metabolic Activation: RAT, LIVER, S-9, AROCLOR 1254 (10%), Method: PREINCUBATION inactive; negative | Test System: MOUSE LYMPHOMA, Strain/Indicator: L5178Y (TK+/TK-), Metabolic Activation: NONE, Method: SUSPENSION/PLATE inactive; negative
active: Test System: MOUSE LYMPHOMA, Strain/Indicator: L5178Y (TK+/TK-), Metabolic Activation: RAT, LIVER, S-9, AROCLOR 1242 AND 1254 (2:1 MIXTURE), Method: SUSPENSION/PLATE active; positive
